Data set [1] is described as follows: Degradation in buffer solutions and seawater. The format is physicochemical.
Data set [2] relates to Hydroides elegans larvae. Put plainly: Larval settlement bioassay, Hydroides elegans competent larvae. It counts as in vivo. To be noted: for inhibition of larval settlement (in words) / concentration at which significant inhibition of larval settlement was observed: H. elegans; for EC50: Hydroides elegans, 24 h, mean of at least three replicates, read-out: EC50 against larval settlement; for concentration at which significant inhibition of larval settlement was observed: compared with controls. The protocol:
(§1) The 24-well plates were incubated at 28° C. for 24 h under a 15 h light/9 h dark photoperiod. The percentage of larval settlement and larval mortality was determined by counting the settled, live individuals under a dissecting microscope and expressing the result as a proportion of the total number of larvae in the well.

Assay in data set [3]: as above
The format is in vivo. To be noted: competent larvae, in vivo, other: immersion, sample added to the seawater in the well; Hydroides elegans; highest concentration examined causing <50% death of larvae. The procedure: as §1

Data set [4] has as its system Balanus amphitrite larvae. In words: Larval settlement bioassay, barnacle Balanus amphitrite cyprids. The settings on record: for inhibition of larval settlement (in words) / concentration at which significant inhibition of larval settlement was observed: B. amphitrite; for toxicity rating from LC50/EC50 ratio: according to Avelin et al. 1993 and Rittschof et al. 1994, ratios for all tested larvae; for concentration at which significant inhibition of larval settlement was observed: compared with controls. The format is in vivo. The protocol:
(§2) The nauplii were reared in freshly filtered nature seawater (FSW, 0.45 μm, 32 S salinity) and fed with Chaetoceros gracilis Schutt at 24° C. in the Coastal Marine Laboratory the Hong Kong University of Science and Technology (HKUST). Cyprids were stored for 2 days at 8° C. (aged cyprids) prior to being used in the bioassays. Ten μl of each test sample dissolved in dimethyl sulfoxide (DMSO) were transferred into a well in 24-well polystyrene plate after the addition of 1 ml of FSW. The control wells contained 1 ml of FSW and 10 μl of DMSO. About 15 cyprids were added in each well with triplicate samples being tested.

Assay in data set [5]: as above
It counts as in vivo. The settings on record: Balanus amphitrite (barnacle), cyprid larvae, in vivo, other: immersion, sample added to the seawater in the well. The protocol:
as §2

A short description of data set [6]: in vivo. The settings on record: Bugula neritina, larvae.
Data set [7] deals with Bugula neritina larvae. In words: Larval settlement bioassay, Bugula neritina. The settings on record: for inhibition of larval settlement (in words): B. neritina.
Setting [8] is: Amphibalanus amphitrite, 24 h, Balanus amphitrite, 24 h, mean of at least three replicates, read-out: EC50 against larval settlement.
[9] abbreviates: Amphibalanus amphitrite, Table 3, Balanus amphitrite larvae, value ± spread, read-out: EC50.
Where [10] appears, read: Balanus amphitrite, highest concentration examined causing <50% death of larvae.
The mark [11] stands for this setting: Table 3, Balanus amphitrite larvae.
The mark [12] stands for this setting: Table 3, Balanus amphitrite larvae, value ± spread.

Results on eleven compounds are retold here after patent publication US8177896B2, “Antifouling furan-2-one derivatives” (The Hong Kong University of Science and Technology, priority 2008, dated 2012).

As a reminder, the EC50 is the concentration at which the effect is half-maximal. The term LC50 denotes the concentration lethal to half of the exposed cells or organisms.

In brackets after ≈: the same amount, converted by molar mass. Where two headings read alike, the source gives them in different places. Some results are limits rather than exact numbers.

Turning to `CCCCCCCCC1C=CC(=O)O1` (centres unmarked) [Compound 6, 5-octylfuran-2-one], the “degradation in natural seawater” value in data set [1] is listed as “can be easily degradated in natural seawater”. Further, the “inhibition of larval settlement (in words)” value (“inhibition … (in words)” for short) in data set [2], in data set [4] and in data set [7] was “distinct inhibition effects” in each case. The EC50 worked out at 0.017 µg/mL (≈ 0.0866 µM) in data set [2], 0.52 µg/mL (≈ 2.65 µM) in data set [4] (setting [8]) and 0.52 ± 0.06 µg/mL (≈ 2.65 µM) in data set [4] (setting [9]). Besides, the LC50 at 24 h in data set [3] is greater than 2 µg/mL; in data set [5] (setting [10]), greater than 50 µg/mL; in data set [5] (setting [11]), greater than 50 µg/mL. The “toxicity rating from LC50/EC50 ratio” value in data set [4] is “nontoxic or low toxic compound”. Besides, the 50% lethal concentration (LC50) in data set [6] was greater than 50 µg/mL. In addition, the “EC50 against larval settlement” value in data set [7] (Bugula neritina, mean of at least three replicates) came to 0.2 µg/mL (≈ 1.02 µM).

On to `CC(CCCCCC1C=CC(=O)O1)C(C)OC1CCCCO1` (centres unmarked) [Compound 5], for which the “inhibition … (in words)” value in data set [2], in data set [4] and in data set [7] was “distinct inhibition effects” throughout. Moreover, the EC50 in data set [2] came out at 6.4 µg/mL (≈ 20.6 µM); in data set [4] (setting [8]), 3.6 µg/mL (≈ 11.6 µM); in data set [4] (setting [9]) it was 3.6 ± 0.56 µg/mL (≈ 11.6 µM). For the same compound, the LC50 at 24 h in data set [3] is greater than 100 µg/mL; in data set [5] (setting [10]), greater than 80 µg/mL; in data set [5] (setting [11]), greater than 80 µg/mL. Also, the “toxicity rating from LC50/EC50 ratio” value in data set [4] is “nontoxic or low toxic compound”.

In the case of `CC(O)C(C)(O)CCCC1C=CC(=O)O1` (single isomer, unassigned) [Compound 11], the EC50 in data set [4] (setting [9]) is greater than 100 µg/mL. The LC50 at 24 h in data set [5] (setting [11]) was greater than 100 µg/mL.

As for `CC(O)C(C)(O)CCCC1C=CC(=O)O1` (centres unmarked) [Compound 10], the LC50 in data set [4] (setting [11]) was greater than 100 µg/mL. The compound also displayed an EC50 in data set [4] (setting [12]) greater than 100 µg/mL.

`CC(=O)C(C)CCCCCC1C=CC(=O)O1` (centres unmarked) [Compound 3]: the “concentration at which significant inhibition of larval settlement was observed” value came out at 5 µg/mL in data set [2] and 25 µg/mL in data set [4]. Moreover, the EC50 in data set [2] was determined as 5.6 µg/mL (≈ 25 µM); in data set [4] (setting [8]), 8.67 µg/mL (≈ 38.7 µM); in data set [4] (setting [9]), 8.67 ± 2.73 µg/mL (≈ 38.7 µM). In addition, the LC50 at 24 h in data set [3], in data set [5] (setting [10]) and in data set [5] (setting [11]) was greater than 100 µg/mL throughout.

`CCC(C)(O)CCCCCC1C=CC(=O)O1` (centres unmarked) [Compound 1]: the “concentration at which significant inhibition of larval settlement was observed” value in data set [2] and in data set [4] was 10 µg/mL throughout. Besides, the EC50 in data set [2] is 12 µg/mL (≈ 53 µM); in data set [4] (setting [8]), 14.8 µg/mL (≈ 65.4 µM); in data set [4] (setting [9]) it was 14.8 ± 5.54 µg/mL (≈ 65.4 µM). Moreover, the LC50 at 24 h in data set [3], in data set [5] (setting [10]) and in data set [5] (setting [11]) was greater than 100 µg/mL each time.

`CC(O)C(C)CCCCCC1C=CC(=O)O1` (centres unmarked) [Compound 2]: the “concentration at which significant inhibition of larval settlement was observed” value in data set [2] was found to be 5 µg/mL; in data set [4], 10 µg/mL. The EC50 in data set [2] came out at 4.4 µg/mL (≈ 19.4 µM); in data set [4] (setting [8]) it was 9.65 µg/mL (≈ 42.6 µM); in data set [4] (setting [9]) it was 9.65 ± 1.5 µg/mL (≈ 42.6 µM). Also, the LC50 at 24 h in data set [3], in data set [5] (setting [10]) and in data set [5] (setting [11]) was greater than 100 µg/mL throughout.

The compound `CC(O)C(C)(O)CCCC1C=CC(=O)O1` (centres unmarked) [Compound 7] returned a median lethal concentration (LC50) in data set [4] (setting [11]) greater than 25 µg/mL. In data set [4] (setting [12]), this compound returned an EC50 of 4.82 ± 1.25 µg/mL (≈ 22.5 µM).

In data set [4] (setting [11]), `CC(O)C(C)(O)CCCC1C=CC(=O)O1` (centres unmarked) [Compound 9] had an LC50 greater than 100 µg/mL. This compound came in with an EC50 in data set [4] (setting [12]) greater than 100 µg/mL.

Consider `CC(O)C(C)(O)CCCC1C=CC(=O)O1` (centres unmarked) [Compound 8], for which the LC50 in data set [4] (setting [11]) is greater than 100 µg/mL. Also, in data set [4] (setting [12]), the 50% effective concentration (EC50) is greater than 100 µg/mL.

Turning to `CC(C)(O)CCCCCC1C=CC(=O)O1` (centres unmarked) [Compound 4], the “concentration at which significant inhibition of larval settlement was observed” value in data set [2] amounted to 8 µg/mL. Also, the results for the EC50 in data set [2], in data set [4] (setting [8]) and in data set [4] (setting [9]) were 12.7 µg/mL (≈ 59.8 µM), greater than 100 µg/mL and greater than 100 µg/mL, respectively. The LC50 at 24 h is greater than 40 µg/mL in data set [3], greater than 140 µg/mL in data set [5] (setting [10]) and greater than 140 µg/mL in data set [5] (setting [11]). In addition, the “inhibition … (in words)” value in data set [4] is listed as “efficient against the larval settlements especially for B. amphitrite”.
